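A five-concentration, 48-hour dose response in 96-well plates underlies each endpoint, interpolated linearly between surrounding concentrations. Here, GI50 denotes the concentration required for 50% inhibition of growth.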 Calls of active or inactive are those of the source. Cut-off read from the data, not from the text of the source: active = GI50 up to about 1.1 µM and inactive = higher.

10 compounds from ChEMBL document CHEMBL1201862, “PubChem BioAssay data set” (2004) can be followed below.

Holding throughout (assay): NCI anticancer screen, dose series, 48 h
In assay [1] the test system is A549.
The subject of assay [2] is CAKI-1.
In assay [3] the test system is CCRF-CEM.
Assay [4] relates to HCC 2998.
In assay [5] the test system is HCT-116.
Assay [6] deals with HL-60.
The test system of assay [7] is HOP-62.
In assay [8] the test system is HT-29.
In assay [9] the test system is K562.
The subject of assay [10] is M19-MEL.
Assay [11] has as its system Malme-3M.
For assay [12], the system named is NCI-H460.
In assay [13] the test system is OVCAR-3.
Assay [14] has as its system OVCAR-4.
Assay [15] has as its system SF-539.
For assay [16], the system named is SK-MEL-2.
In assay [17] the test system is SN12C.
Assay [18] deals with SW-620.
Assay [19] has as its system UACC-257.
Assay [20] relates to BT-549.

For the compound `N[C@H]1C2C3CC4C5CC(C42)C1(c1ccccc1)C53` (stereo partly specified), the GI50 was > 100 µM (inactive) in assay [1]; > 100 µM (inactive) in [2]; > 100 µM (inactive) in assay [3]; 29.7 µM (inactive) in assay [4]; > 100 µM (inactive) in assay [5]; > 100 µM (inactive) in assay [6]. Further, the GI50 in assay [7] is > 100 µM (inactive); in assay [8] it was 62.5 µM (inactive); in assay [9], > 100 µM (inactive); in [10] it was > 100 µM (inactive); in [11], > 100 µM (inactive); in assay [12], > 100 µM (inactive). Moreover, the GI50 in assay [13], in assay [14], in [15], in assay [16], in assay [17] and in assay [18] was > 100 µM (inactive) in each case. Moreover, the GI50 in assay [19] is > 10 µM (inactive).

With `CCOC(=O)C(C)(c1cn(C)c2ccccc12)c1cn(C)c2ccccc12`, the GI50 in assay [1] was 81.5 µM (inactive); in [2], 41.6 µM (inactive); in [3] it was > 100 µM (inactive); in assay [4] it was > 100 µM (inactive); in [5] it was 34.3 µM (inactive); in [6], > 100 µM (inactive). Also, the GI50 was 76.2 µM (inactive) in assay [7]; > 100 µM (inactive) in [8]; 66.2 µM (inactive) in assay [9]; > 100 µM (inactive) in assay [10]; 67.3 µM (inactive) in [11]; > 100 µM (inactive) in [12]. Further, the GI50 is 45.8 µM (inactive) in assay [13]; 32.5 µM (inactive) in assay [14]; 49.7 µM (inactive) in assay [15]; > 100 µM (inactive) in assay [16]; > 100 µM (inactive) in assay [18]; > 100 µM (inactive) in [19].

Take `N#C/N=C(/NCc1ccccc1)N(Cc1ccccc1)Cc1ccccc1`: the GI50 in assay [1] is 16.4 µM (inactive); in [20], 61.4 µM (inactive); in assay [2] it was 28.5 µM (inactive); in assay [3], 16.1 µM (inactive); in assay [4], 32.9 µM (inactive); in assay [5], 17.8 µM (inactive). Also, the GI50 is 16.8 µM (inactive) in assay [6]; > 31.6 µM (inactive) in assay [7]; > 10 µM (inactive) in assay [8]; 26.3 µM (inactive) in [9]; > 10 µM (inactive) in assay [10]; > 10 µM (inactive) in assay [11]. Besides, the GI50 in assay [12] was 19.6 µM (inactive); in [13], 22.6 µM (inactive); in assay [14], 23.8 µM (inactive); in [15] it was 23.7 µM (inactive); in assay [16] it was 15.2 µM (inactive); in [17], 25.2 µM (inactive). In addition, the GI50 in assay [18] is 64 µM (inactive); in assay [19], > 10 µM (inactive).

Consider `C[C@H]1C=C2C(=O)O[C@H]3CC[C@@H](C1)[C@@]23O`, for which the GI50 in [1] was 11.2 µM (inactive); in [2] it was 3.72 µM (inactive); in assay [3] it was 2.01 µM (inactive); in assay [4], 13.8 µM (inactive); in assay [5], 2.75 µM (inactive); in assay [6], 2.12 µM (inactive). Further, the GI50 in assay [7] is > 10 µM (inactive); in [8] it was 3.97 µM (inactive); in assay [9], 2.37 µM (inactive); in assay [10] it was 3.76 µM (inactive); in assay [11], 7.03 µM (inactive); in assay [12], 6 µM (inactive). The GI50 in [13] was 5.38 µM (inactive); in assay [14] it was 10.3 µM (inactive); in assay [15] it was 2.03 µM (inactive); in [16], 2.71 µM (inactive); in [17], 2.4 µM (inactive); in [18], 3.28 µM (inactive). Besides, the GI50 in assay [19] was 10.3 µM (inactive).

In the case of `CCOC(=O)N1CCc2cc(OC)c(OC)c3c2c1cc1cc(OC)c(OC)cc13`, the GI50 in assay [1] was 1.7 µM (inactive); in assay [20], 0.577 µM (active); in assay [2], 2.51 µM (inactive); in [3], 4.26 µM (inactive); in assay [4], 2.29 µM (inactive); in [5], 1.22 µM (inactive). Further, the GI50 in assay [6] was 1.32 µM (inactive); in [7] it was 3.27 µM (inactive); in [8] it was 0.492 µM (active); in assay [9] it was 2.91 µM (inactive); in [10] it was 1.88 µM (inactive); in [11] it was 3.5 µM (inactive). The GI50 in assay [12] was 1.09 µM (active); in [13], 0.984 µM (active); in [14] it was 10.5 µM (inactive); in assay [15], 1.69 µM (inactive); in assay [16], 2.24 µM (inactive); in [17] it was 4.62 µM (inactive). For the same compound, the GI50 in assay [18] was 1.15 µM (inactive); in assay [19], 12.1 µM (inactive).

Take `C/C(CN1C(=O)c2ccccc2C1=O)=N\NS(=O)(=O)c1ccc(C)cc1`: the GI50 in assay [1], in assay [2], in assay [3], in assay [4], in assay [5] and in assay [6] was > 100 µM (inactive) in each case. In addition, the GI50 in assay [7], in assay [8], in [9], in assay [10], in assay [11] and in assay [12] was > 100 µM (inactive) each time. The GI50 in assay [13], in [14], in assay [15], in [16], in assay [17] and in [18] was > 100 µM (inactive) throughout. Moreover, in assay [19], the GI50 was > 100 µM (inactive).

For the compound `Nc1nc(N)c(CCCCc2ccccc2)c(N)n1`, the GI50 in assay [1], in assay [20], in assay [2], in [3], in assay [4] and in assay [5] was > 100 µM (inactive) throughout. The GI50 in assay [6], in assay [7], in [8], in assay [9], in assay [10] and in [11] was > 100 µM (inactive) in each case. Moreover, the GI50 in assay [12], in [13], in [14], in assay [15], in [16] and in assay [17] was > 100 µM (inactive) throughout. Moreover, the GI50 in [18] and in assay [19] was > 100 µM (inactive) in each case.

On to `O=C1CN(C(=O)c2ccccc2)Cc2[nH]c3ccccc3c21`, for which the GI50 in [1], in assay [3], in [4], in assay [5], in [6] and in assay [7] was > 100 µM (inactive) throughout. Besides, the GI50 in [8], in assay [9], in assay [10], in [11], in [12] and in assay [13] was > 100 µM (inactive) throughout. Besides, the GI50 in assay [14], in [15], in assay [16], in assay [17], in assay [18] and in assay [19] was > 100 µM (inactive) each time.

Take `CN(C)CCNc1ccc2nnn3c4ccc(Cl)cc4c(=O)c1c23`: the GI50 in [1] was 2.72 µM (inactive); in assay [20], 16 µM (inactive); in assay [2] it was 2.25 µM (inactive); in assay [3] it was 4.62 µM (inactive); in [4] it was 8.67 µM (inactive); in assay [5], 1.48 µM (inactive). The GI50 was 4.73 µM (inactive) in [6]; 4.18 µM (inactive) in assay [7]; 1.88 µM (inactive) in [8]; 2.14 µM (inactive) in [9]; 3.51 µM (inactive) in assay [10]; 4.89 µM (inactive) in assay [11]. Besides, the GI50 in [12] was 2.48 µM (inactive); in assay [13], 5.6 µM (inactive); in assay [14], 2.94 µM (inactive); in assay [15] it was 4.78 µM (inactive); in [16], 6.19 µM (inactive); in assay [17] it was 2.36 µM (inactive). For the same compound, the GI50 in assay [18] is 1.03 µM (active); in assay [19], 5.19 µM (inactive).

Turning to `COc1cc(C(=O)N[C@H]2CCc3cc(OC)c(OC)c(OC)c3-c3ccc(SC)c(=O)cc32)cc(OC)c1OC`, the GI50 in assay [1] is 0.0813 µM (active); in [3], 0.00705 µM (active); in assay [4] it was 0.0113 µM (active); in assay [5] it was 0.00857 µM (active); in [6], 0.00847 µM (active); in assay [7] it was 0.0121 µM (active). The GI50 is 0.00641 µM (active) in assay [8]; 0.00583 µM (active) in assay [9]; 0.0225 µM (active) in assay [10]; 0.02 µM (active) in assay [11]; 0.00615 µM (active) in [12]; 0.00502 µM (active) in [13]. The GI50 was 1.42 µM (inactive) in assay [14]; 0.00515 µM (active) in [15]; 0.0102 µM (active) in assay [16]; 0.0204 µM (active) in assay [17]; 0.00741 µM (active) in assay [18]; 0.0586 µM (active) in assay [19].
